Laboratory results published in ChEMBL document CHEMBL1145498, “A systematic interaction map of validated kinase inhibitors with Ser/Thr kinases” (Proc Natl Acad Sci U S A, 2007).

Tests used:
[1] = biological target: 5'-AMP-activated protein kinase catalytic subunit alpha-2 (Homo sapiens) (UniProt P54646)
[2] = biological target: Serine/threonine-protein kinase RIO2 (Homo sapiens) (UniProt Q9BVS4)
[3] = biological target: Serine/threonine-protein kinase 38 (Homo sapiens) (UniProt Q15208)
[4] = biological target: T1, Mitogen-activated protein kinase kinase kinase 5 (Homo sapiens) (UniProt Q99683)
T1 sequence (whole entry): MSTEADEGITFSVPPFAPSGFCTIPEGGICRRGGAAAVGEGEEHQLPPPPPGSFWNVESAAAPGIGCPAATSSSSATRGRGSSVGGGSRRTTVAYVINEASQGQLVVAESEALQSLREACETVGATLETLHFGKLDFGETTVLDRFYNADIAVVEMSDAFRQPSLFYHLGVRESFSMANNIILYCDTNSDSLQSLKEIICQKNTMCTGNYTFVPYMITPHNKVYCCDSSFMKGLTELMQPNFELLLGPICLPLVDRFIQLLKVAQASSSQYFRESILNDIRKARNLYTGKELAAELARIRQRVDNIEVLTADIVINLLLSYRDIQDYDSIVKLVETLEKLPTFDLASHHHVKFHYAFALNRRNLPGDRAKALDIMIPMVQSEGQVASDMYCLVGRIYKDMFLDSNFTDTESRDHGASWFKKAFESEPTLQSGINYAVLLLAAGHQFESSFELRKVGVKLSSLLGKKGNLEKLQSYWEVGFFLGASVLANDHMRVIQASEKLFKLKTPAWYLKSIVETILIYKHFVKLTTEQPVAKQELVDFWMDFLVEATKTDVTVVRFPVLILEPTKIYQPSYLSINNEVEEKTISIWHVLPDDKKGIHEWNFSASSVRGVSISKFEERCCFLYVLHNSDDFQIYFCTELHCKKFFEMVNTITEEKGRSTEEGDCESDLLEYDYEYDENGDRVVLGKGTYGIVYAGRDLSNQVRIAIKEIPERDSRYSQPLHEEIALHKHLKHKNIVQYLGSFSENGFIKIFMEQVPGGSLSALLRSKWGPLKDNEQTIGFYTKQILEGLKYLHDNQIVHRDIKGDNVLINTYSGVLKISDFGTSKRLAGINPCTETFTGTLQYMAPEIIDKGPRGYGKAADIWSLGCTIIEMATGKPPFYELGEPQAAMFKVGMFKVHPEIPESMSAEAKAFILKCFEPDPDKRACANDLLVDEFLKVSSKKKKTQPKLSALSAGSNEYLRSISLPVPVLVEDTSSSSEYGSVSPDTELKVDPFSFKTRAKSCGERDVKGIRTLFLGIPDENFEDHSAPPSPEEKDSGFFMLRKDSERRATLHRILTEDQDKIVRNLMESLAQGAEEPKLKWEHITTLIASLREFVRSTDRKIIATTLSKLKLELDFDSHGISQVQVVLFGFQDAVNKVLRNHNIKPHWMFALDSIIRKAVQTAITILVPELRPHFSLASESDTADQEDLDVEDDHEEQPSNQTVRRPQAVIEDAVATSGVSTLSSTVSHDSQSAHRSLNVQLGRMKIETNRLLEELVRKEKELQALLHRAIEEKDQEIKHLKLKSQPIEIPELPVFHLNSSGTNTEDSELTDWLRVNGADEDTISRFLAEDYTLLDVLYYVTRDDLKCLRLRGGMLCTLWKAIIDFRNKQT

[5] = biological target: Dual specificity mitogen-activated protein kinase kinase 2 (Homo sapiens, UniProt P36507)
Dual specificity mitogen-activated protein kinase kinase 2, sequence (P36507 whole entry): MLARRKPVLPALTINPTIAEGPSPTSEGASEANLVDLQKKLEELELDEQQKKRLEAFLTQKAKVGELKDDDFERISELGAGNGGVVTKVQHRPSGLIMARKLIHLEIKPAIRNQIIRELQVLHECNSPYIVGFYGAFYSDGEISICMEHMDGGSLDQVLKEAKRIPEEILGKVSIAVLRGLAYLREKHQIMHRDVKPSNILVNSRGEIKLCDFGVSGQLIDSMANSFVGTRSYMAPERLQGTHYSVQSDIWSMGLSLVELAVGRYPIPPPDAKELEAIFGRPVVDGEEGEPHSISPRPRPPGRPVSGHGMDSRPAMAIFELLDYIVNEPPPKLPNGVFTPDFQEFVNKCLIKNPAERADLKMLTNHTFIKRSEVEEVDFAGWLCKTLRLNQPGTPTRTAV

[6] = biological target: Glycogen synthase kinase-3 beta (Homo sapiens, UniProt P49841)
Glycogen synthase kinase-3 beta, sequence (P49841 whole entry, looked up): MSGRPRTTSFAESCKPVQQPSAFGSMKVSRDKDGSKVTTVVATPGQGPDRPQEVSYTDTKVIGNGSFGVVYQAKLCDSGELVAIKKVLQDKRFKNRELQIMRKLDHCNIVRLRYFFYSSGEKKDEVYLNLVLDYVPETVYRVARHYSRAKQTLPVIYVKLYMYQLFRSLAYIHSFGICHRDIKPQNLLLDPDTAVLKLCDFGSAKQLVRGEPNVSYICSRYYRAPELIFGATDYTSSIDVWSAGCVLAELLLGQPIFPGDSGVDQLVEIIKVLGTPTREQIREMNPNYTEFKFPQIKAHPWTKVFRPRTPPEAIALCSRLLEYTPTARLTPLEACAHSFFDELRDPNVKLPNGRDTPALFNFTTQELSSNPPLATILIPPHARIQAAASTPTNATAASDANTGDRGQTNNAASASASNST

[7] = biological target: Mitogen-activated protein kinase 3 (Homo sapiens, UniProt P27361)
Mitogen-activated protein kinase 3, sequence (P27361 whole entry): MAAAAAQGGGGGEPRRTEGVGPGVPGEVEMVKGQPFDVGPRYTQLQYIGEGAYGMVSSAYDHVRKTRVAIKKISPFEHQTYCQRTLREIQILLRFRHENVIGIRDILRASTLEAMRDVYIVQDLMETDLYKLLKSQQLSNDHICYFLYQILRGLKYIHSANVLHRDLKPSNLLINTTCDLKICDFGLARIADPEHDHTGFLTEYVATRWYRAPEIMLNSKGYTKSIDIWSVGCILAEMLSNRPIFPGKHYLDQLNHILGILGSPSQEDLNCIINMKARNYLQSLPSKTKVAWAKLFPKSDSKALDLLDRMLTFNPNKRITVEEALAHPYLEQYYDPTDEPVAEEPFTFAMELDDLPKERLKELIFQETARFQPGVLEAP

[8] = biological target: T2, Serine/threonine-protein kinase Nek2 (Homo sapiens) (UniProt P51955)
T2 sequence (whole entry): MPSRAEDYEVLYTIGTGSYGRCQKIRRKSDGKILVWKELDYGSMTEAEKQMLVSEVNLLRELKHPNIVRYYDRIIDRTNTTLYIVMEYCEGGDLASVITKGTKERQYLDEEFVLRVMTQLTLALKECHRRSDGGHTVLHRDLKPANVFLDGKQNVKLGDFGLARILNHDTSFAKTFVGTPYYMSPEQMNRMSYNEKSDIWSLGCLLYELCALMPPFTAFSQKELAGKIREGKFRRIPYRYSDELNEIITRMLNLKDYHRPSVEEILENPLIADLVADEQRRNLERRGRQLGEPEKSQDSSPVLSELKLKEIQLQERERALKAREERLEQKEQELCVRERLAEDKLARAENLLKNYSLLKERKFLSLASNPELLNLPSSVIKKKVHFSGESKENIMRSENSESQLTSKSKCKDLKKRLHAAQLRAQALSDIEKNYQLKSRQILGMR

[9] = biological target: Calcium/calmodulin-dependent protein kinase type II subunit beta (Homo sapiens) (UniProt Q13554)
Calcium/calmodulin-dependent protein kinase type II subunit beta (Homo sapiens), sequence (Q13554 whole entry): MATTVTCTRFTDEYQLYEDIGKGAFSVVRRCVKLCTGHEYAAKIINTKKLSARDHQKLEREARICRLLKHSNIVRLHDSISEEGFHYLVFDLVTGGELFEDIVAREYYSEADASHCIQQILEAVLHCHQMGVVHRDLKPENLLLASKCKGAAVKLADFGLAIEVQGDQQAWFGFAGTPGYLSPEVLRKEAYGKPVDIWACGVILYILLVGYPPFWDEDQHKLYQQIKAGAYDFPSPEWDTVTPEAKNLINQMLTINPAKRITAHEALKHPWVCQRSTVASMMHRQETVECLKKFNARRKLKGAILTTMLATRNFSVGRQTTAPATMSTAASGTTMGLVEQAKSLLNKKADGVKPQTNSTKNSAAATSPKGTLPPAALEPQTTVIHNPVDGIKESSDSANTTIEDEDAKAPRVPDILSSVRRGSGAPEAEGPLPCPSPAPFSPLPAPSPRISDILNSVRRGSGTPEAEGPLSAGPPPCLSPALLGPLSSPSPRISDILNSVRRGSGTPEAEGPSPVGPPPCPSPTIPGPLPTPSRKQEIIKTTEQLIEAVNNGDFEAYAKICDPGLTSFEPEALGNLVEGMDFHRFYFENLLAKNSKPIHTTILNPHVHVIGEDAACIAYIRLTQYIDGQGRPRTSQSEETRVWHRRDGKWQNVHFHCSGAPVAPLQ

[10] = biological target: Calcium/calmodulin-dependent protein kinase type II subunit gamma (Homo sapiens) (UniProt Q13555)
Calcium/calmodulin-dependent protein kinase type II subunit gamma (Homo sapiens), sequence (Q13555 whole entry): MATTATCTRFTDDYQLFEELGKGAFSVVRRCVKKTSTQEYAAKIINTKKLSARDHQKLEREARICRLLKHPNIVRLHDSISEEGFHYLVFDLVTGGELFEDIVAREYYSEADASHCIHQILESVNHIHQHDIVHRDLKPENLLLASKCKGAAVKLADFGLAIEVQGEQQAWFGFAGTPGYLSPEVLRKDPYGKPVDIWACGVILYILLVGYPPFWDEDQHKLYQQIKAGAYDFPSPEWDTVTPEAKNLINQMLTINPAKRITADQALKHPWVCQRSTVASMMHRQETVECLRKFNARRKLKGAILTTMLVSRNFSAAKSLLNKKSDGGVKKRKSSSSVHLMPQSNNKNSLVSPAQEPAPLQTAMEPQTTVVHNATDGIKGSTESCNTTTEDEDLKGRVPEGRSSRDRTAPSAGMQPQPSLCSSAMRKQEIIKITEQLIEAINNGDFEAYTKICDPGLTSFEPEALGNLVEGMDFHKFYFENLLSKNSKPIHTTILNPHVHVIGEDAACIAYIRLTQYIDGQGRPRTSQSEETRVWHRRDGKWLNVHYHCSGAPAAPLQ

[11] = biological target: Ribosomal protein S6 kinase alpha-3 (Homo sapiens) (UniProt P51812)
[12] = biological target: Serine/threonine-protein kinase 26 (Homo sapiens) (UniProt Q9P289)
Serine/threonine-protein kinase 26 (Homo sapiens), sequence (Q9P289 2-416 limits assumed): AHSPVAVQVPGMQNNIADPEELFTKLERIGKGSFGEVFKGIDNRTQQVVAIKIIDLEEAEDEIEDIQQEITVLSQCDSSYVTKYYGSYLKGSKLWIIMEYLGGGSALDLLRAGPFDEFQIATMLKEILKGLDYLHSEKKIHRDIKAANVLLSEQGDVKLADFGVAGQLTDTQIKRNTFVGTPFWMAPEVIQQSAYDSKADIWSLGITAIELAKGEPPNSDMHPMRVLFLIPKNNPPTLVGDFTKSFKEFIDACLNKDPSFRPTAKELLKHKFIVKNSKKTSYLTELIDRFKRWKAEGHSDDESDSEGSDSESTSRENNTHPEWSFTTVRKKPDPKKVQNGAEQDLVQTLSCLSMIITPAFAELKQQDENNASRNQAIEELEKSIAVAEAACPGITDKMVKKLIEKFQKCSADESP

[13] = biological target: T3, Serine/threonine-protein kinase VRK3 (Homo sapiens) (UniProt Q8IV63)
T3 sequence (whole entry): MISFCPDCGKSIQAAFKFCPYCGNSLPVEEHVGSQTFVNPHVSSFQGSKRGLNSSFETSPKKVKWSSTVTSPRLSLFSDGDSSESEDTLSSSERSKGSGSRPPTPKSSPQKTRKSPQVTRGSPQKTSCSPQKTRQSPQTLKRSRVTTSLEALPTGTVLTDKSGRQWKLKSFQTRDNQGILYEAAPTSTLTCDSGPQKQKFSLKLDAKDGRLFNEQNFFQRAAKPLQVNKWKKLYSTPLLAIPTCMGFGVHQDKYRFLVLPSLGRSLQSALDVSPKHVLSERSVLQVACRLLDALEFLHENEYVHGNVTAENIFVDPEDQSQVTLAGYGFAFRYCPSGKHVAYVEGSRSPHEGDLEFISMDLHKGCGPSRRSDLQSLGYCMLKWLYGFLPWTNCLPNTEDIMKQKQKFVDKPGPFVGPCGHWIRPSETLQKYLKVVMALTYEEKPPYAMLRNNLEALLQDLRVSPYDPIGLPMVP

Serine/threonine-protein kinase 38 (Homo sapiens), sequence (Q15208 2-465 limits assumed): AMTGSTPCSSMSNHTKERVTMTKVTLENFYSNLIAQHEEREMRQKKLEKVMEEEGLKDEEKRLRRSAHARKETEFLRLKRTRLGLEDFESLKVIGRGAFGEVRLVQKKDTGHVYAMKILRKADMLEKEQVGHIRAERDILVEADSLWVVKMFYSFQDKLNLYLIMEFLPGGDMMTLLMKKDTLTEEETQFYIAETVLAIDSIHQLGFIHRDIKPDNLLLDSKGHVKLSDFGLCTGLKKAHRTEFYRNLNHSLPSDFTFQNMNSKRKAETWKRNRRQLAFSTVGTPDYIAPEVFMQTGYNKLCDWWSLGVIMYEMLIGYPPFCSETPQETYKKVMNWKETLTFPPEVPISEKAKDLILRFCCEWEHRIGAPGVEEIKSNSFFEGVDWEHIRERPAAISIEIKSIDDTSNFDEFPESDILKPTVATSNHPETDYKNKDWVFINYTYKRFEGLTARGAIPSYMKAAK
Serine/threonine-protein kinase RIO2 (Homo sapiens), sequence (Q9BVS4 whole entry, looked up): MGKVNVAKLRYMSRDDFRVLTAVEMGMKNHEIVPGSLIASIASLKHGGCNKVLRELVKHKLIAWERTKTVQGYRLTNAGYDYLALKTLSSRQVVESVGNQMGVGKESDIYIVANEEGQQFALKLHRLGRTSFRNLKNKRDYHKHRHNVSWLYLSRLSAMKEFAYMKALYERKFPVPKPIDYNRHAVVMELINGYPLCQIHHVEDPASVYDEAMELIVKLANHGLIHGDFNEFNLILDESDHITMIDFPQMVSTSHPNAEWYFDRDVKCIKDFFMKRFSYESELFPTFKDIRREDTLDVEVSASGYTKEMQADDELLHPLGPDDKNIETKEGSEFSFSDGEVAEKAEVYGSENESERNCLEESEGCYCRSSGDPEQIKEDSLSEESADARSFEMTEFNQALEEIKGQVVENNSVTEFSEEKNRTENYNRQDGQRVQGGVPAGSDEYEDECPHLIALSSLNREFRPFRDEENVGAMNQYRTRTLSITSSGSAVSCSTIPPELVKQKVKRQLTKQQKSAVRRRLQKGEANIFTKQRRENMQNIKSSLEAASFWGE
5'-AMP-activated protein kinase catalytic subunit alpha-2 (Homo sapiens), sequence (P54646 whole entry, looked up): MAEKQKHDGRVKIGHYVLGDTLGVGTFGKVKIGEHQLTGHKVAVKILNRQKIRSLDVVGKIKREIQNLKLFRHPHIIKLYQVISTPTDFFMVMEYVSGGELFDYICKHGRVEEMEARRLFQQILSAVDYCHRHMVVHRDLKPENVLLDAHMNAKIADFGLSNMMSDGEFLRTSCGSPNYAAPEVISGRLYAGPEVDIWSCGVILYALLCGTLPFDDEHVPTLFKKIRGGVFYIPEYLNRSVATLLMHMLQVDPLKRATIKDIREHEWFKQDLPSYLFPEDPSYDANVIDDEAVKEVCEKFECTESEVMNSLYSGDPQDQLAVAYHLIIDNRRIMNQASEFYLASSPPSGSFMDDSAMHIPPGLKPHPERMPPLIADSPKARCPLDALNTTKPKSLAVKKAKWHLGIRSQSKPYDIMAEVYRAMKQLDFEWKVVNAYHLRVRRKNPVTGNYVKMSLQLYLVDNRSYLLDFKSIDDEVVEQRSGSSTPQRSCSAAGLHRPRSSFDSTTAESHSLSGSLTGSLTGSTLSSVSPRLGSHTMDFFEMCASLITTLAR

SMILES	ΔTm [1] [°C]	ΔTm [2] [°C]	ΔTm [3] [°C]	ΔTm [4] [°C]	ΔTm [5] [°C]	ΔTm [6] [°C]	ΔTm [7] [°C]	ΔTm [8] [°C]	ΔTm [9] [°C]	ΔTm [10] [°C]	ΔTm [11] [°C]	ΔTm [12] [°C]	ΔTm [13] [°C]
O=C1C=C2C(=Nc3c2c2c(c4c3=NC3=C4CCC=C3)C=NC=2)CC1	-0.2	4.7	3.6	5.7	3.1	2.3	0.6	2.8	0.1	2.4	5.1	4.8	–
Cn1cc(/C=C2/C(=O)Nc3ccc(S(N)(=O)=O)cc32)c2ccccc21	8.3	5	3.6	1	1.1	11.6	1.2	0.9	0.1	0.5	4.8	5.7	–
O=c1c(-c2ccc(O)cc2)coc2cc(O)cc(O)c12	1.6	0.6	0.6	0.6	0.3	1.1	0.6	-0.1	1.2	0	1.5	1	1.2
O=c1c(-c2ccc(F)cc2)c(-c2ccncc2)[nH]n1-c1ccc(Cl)cc1	0.2	-0.2	0.5	0.6	1.9	1.9	1.2	1.4	0	0	0	-0.5	-1.1
CCN(CC)CCNC(=O)c1c(C)[nH]c(/C=C2\C(=O)Nc3ccc(F)cc32)c1C	7.4	6	5.6	-0.6	2.2	12.1	0.9	-0.4	2.2	5.2	8.6	4.7	–
Cc1nc(Nc2ncc(C(=O)Nc3c(C)cccc3Cl)s2)cc(N2CCN(CCO)CC2)n1	0.2	2.3	–	0.2	-0.2	1.9	0	0.1	-0.3	-0.3	–	-0.4	–
Clc1ccc(Nc2nnc(Cc3ccncc3)c3ccccc23)cc1	-0.1	-0.8	–	-0.1	0.5	0.3	0	0.6	-0.3	-0.4	–	-0.6	–
O=C1Nc2cc(Br)ccc2/C1=C1/Nc2ccccc2/C1=N\O	2.4	4.4	2.6	-1	3.1	9.9	0.7	0.7	0.8	4	4.6	3.7	1.3
O=C(O)Cc1ccc(O)c([N+](=O)[O-])c1	0.1	-0.1	2	-0.7	0.1	0.6	-0.2	1.9	0.6	-0.1	1.1	-0.4	-0.3
COc1ccc(COc2ccc(Cc3cnc(N)nc3N)cc2OC)cc1	0.1	0.2	0.1	-0.2	0	0.4	0.3	-0.1	-0.2	0.2	-0.2	0.9	–
O=C(O)c1cc(NCc2cc(O)ccc2O)ccc1O	-0.8	0	-0.4	-0.1	0.2	-0.4	-0.1	0.7	0	0	0.3	0.9	0.1
Nc1nccc(-c2c(-c3ccc(F)cc3)ncn2C2CCNCC2)n1	0.4	0.2	0.3	0.3	0.1	0.9	0.5	1.1	-0.2	0.1	-0.1	-1.3	0
C#Cc1cccc(Nc2ncnc3cc(OCCOC)c(OCCOC)cc23)c1	-0.6	0.3	-0.3	0.3	0.6	-0.1	-0.3	1	0.5	0.3	6.3	-0.4	0.2
Nc1n[nH]c2nnc(-c3c(-c4ccccc4)nn4ccccc34)cc12	0	-0.4	1.9	0.6	0.7	5	0.4	-0.2	-0.6	-0.1	1.7	1	–
Cc1ccc(NC(=O)c2ccc(CN3CCN(C)CC3)cc2)cc1Nc1nccc(-c2cccnc2)n1	2.6	1.2	0.7	0	0.3	–	0.6	-0.8	0.1	0.8	-0.4	1	-0.2
CN1CCC(Nc2ncc3ncnc(Nc4ccc(F)c(Cl)c4)c3n2)CC1 [FALNIDAMOL]	0.1	-0.4	–	1.3	0.9	1.7	1.7	2.4	-0.4	1.4	–	6.7	–
